Assay results reported in US12637472B2, “Benzimidazole heteroatom-containing spiro compound and medicinal use thereof” (Changzhi University, priority 2023, dated 2026).
Like-named read-outs stand apart in the source and are kept apart here.

What was measured:
Type in all cases: cell-based
[1] = tested on: human gastric adenocarcinoma cells AGS; experiment: MTT in vitro cell proliferation inhibition experiment, AGS; details: MTT method, 48 h contact between compound and cell, read-out: Antiproliferative activity (IC50, μM) AGS
Procedure: (§1) Human liver tumor cells HepG2, human colon cancer cells HCT116, and human gastric adenocarcinoma cells AGS were purchased from the Institute of Basic Medical Sciences, Chinese Academy of Medical Sciences. The cells each were preserved and passaged in the laboratory of the present disclosure according to respective cultivation data. Each cell line was routinely inoculated in a 50 mL cell culture flask, and cultivated with a 10% fetal bovine serum-containing DMEM/IRP-1640 medium at 37° C., 5% CO2, and 100% humidity, where the medium was changed daily. When growing to a confluency of 80% to 90%, cells were digested with a mixture of trypsin and EDTA and passaged according to 1:3.
(§2) An in vitro cell activity and proliferation inhibition experiment was conducted by an MTT method to investigate an impact of a target compound on a survival activity of each cell. Cells at a logarithmic growth phase were inoculated at 5×10^3 cells (100 μL)/well in a 96-well culture plate and cultivated for 24 h, and then compound solutions with different concentrations prepared in advance were added (100 μL) to the plate. At least 3 replicate wells were set for each concentration. A solvent control group without a compound and a blank control group without a cell were set. Edge wells each were filled with 200 μL of sterilized water. […] A liquid in each well was completely removed carefully, 150 μL of DMSO was added to each well, the plate was gently shaken on a microshaker for 10 min to make a purple crystal fully dissolved, and then an absorbance value was determined at 570 nm by a microplate reader. With a cell viability of the solvent control group without a compound as 100%, a cell survival rate was calculated as follows: a cell survival rate=(an absorbance value of a compound group−an absorbance value of the blank control group)/(an absorbance value of the control group−an absorbance value of the blank control group)×100%. A half-maximal inhibitory concentration (IC50) of a compound for a cell was calculated by the Graphpad Prism 5 software.

[2] = tested on: human colon cancer cells HCT116; experiment: MTT in vitro cell proliferation inhibition experiment, HCT116; details: 48 h contact between compound and cell, read-out: Antiproliferative activity (IC50, μM) HCT116
Procedure: as §1, §2

[3] = tested on: Human liver tumor cells HepG2; experiment: MTT in vitro cell proliferation inhibition experiment, HepG2; details: MTT method, 48 h contact between compound and cell, read-out: Antiproliferative activity (IC50, μM) HepG2
Procedure: as §1, §2

[4] = Homo sapiens, HCT-116, MTT method

SMILES | IC50 [1] | IC50 ([2]; MTT method) | IC50 [3] | IC50 ([1]; Homo sapiens) | IC50 [2, 4] | IC50 ([3]; Homo sapiens)
N.N.[Cl][Pt][Cl] [Cisplatin, reference compound] | 46 µM | 39.1 µM | 43.2 µM | – | – | –
O=C(c1nc2ccccc2[nH]1)C1C(C2CCCCC2)C2CCCN2C12C(=O)c1ccccc1C2=O (stereo not drawn) [Compound 1, 2-(1H-benzimidazol-2-carbonyl)-1-cyclohexyl-1,2,5,6,7,7a-hexahydrospiroinden-2,3-pyrrolizine-1,3-dione] | – | – | – | 40.8 µM | > 100 µM | > 100 µM
O=C(c1nc2ccccc2[nH]1)C1C(c2ccc(Cl)c(F)c2)C2CCCN2C12C(=O)c1ccccc1C2=O (stereo not drawn) [Compound 2, 2-(1H-benzimidazol-2-carbonyl)-1-(3-fluoro-4-chlorophenyl)-1,2,5,6,7,7a-hexahydrospiro[inden-2,3-pyrrolizine]-1,3-dione] | – | – | – | > 100 µM | > 100 µM | > 100 µM
O=C(c1nc2ccccc2[nH]1)C1C(c2ccc(Cl)cc2)C2CCCN2C12C(=O)c1ccccc1C2=O (stereo not drawn) [Compound 3, 2-(1H-benzimidazol-2-carbonyl)-1-4-chlorophenyl-1,2,5,6,7,7a-hexahydrospiroinden-2,3-pyrrolizine-1,3-dione] | – | – | – | 30 µM | 26.2 µM | > 100 µM
Cc1ccc(C2C3CCCN3C3(C(=O)c4ccccc4C3=O)C2C(=O)c2nc3ccccc3[nH]2)cc1 (stereo not drawn) [Compound 4, 2-(1H-benzimidazol-2-carbonyl)-1-p-tolyl-1,2,5,6,7,7a-hexahydrospiroinden-2,3-pyrrolizine-1,3-dione] | – | – | – | 17.1 µM | 54.2 µM | > 100 µM
CCOc1ccc(C2C3CCCN3C3(C(=O)c4ccccc4C3=O)C2C(=O)c2nc3ccccc3[nH]2)cc1OCC (stereo not drawn) [Compound 5, 2-(1H-benzimidazol-2-carbonyl)-3,4-diethoxyphenyl-1,2,5,6,7,7a-hexahydrospiroinden-2,3-pyrrolizine-1,3-dione] | – | – | – | 36.9 µM | 17.4 µM | 80.7 µM
O=C(c1nc2ccccc2[nH]1)C1C(c2cccc(Br)c2)C2CCCN2C12C(=O)c1ccccc1C2=O (stereo not drawn) [Compound 6, 2-(1H-benzimidazol-2-carbonyl)-1-3-bromophenyl-1,2,5,6,7,7a-hexahydrospiroinden-2,3-pyrrolizine-1,3-dione] | – | – | – | 4 µM | 6.64 µM | 11.7 µM
CCOc1ccc(C2C3CCCN3C3(C(=O)c4ccccc4C3=O)C2C(=O)c2nc3ccccc3[nH]2)cc1 (stereo not drawn) [Compound 7, 2-(1H-benzimidazol-2-carbonyl)-1-(4-ethoxyphenyl)-1,2,5,6,7,7a-hexahydrospiroinden-2,3-pyrrolizine-1,3-dione] | – | – | – | 7.73 µM | 7.99 µM | 20.5 µM
O=C(c1nc2ccccc2[nH]1)C1C(c2ccc(Br)cc2)C2CCCN2C12C(=O)c1ccccc1C2=O (stereo not drawn) [Compound 8, 2-(1H-benzimidazol-2-carbonyl)-1-4-bromophenyl-1,2,5,6,7,7a-hexahydrospiroinden-2,3-pyrrolizine-1,3-dione] | – | – | – | 25.7 µM | 17.4 µM | > 100 µM
CC(C)CC1NC2(C(=O)c3ccccc3C2=O)C(C(=O)c2nc3ccccc3[nH]2)C1C1CCCCC1 (stereo not drawn) [Compound 9, 3-(1H-benzimidazol-2-carbonyl)-4-cyclohexyl-5-isobutylspiro[inden-2,2′-pyrrolidine]-1,3-dione] | – | – | – | 69 µM | 20.3 µM | > 100 µM
CC(C)CC1NC2(C(=O)c3ccccc3C2=O)C(C(=O)c2nc3ccccc3[nH]2)C1c1ccc(Cl)c(F)c1 (stereo not drawn) [Compound 10, 3-(1H-benzimidazol-2-carbonyl)-4-(3-fluoro-4-chlorophenyl)-5-isobutylspiro[inden-2,2′-pyrrolidine]-1,3-dione] | – | – | – | 46.7 µM | 15.7 µM | 87.7 µM
CC(C)CC1NC2(C(=O)c3ccccc3C2=O)C(C(=O)c2nc3ccccc3[nH]2)C1c1ccc(Cl)cc1 (stereo not drawn) [Compound 11, 3-(1H-benzimidazol-2-carbonyl)-4-(4-chlorophenyl)-5-isobutylspiro[inden-2,2′-pyrrolidine]-1,3-dione] | – | – | – | > 100 µM | 30.3 µM | > 100 µM
